pIC50, pKi: −log10 of the molar value.
Columns and labels:
[1] = DRUGMATRIX: Platelet-Derived Growth Factor (PDGF) radioligand binding (ligand: [125I] PDGF); type: cell-based; details: nih3t3; Not Active = under 50% inhibition at 10 µM
Caspase-1 = molecular target: T1, Caspase-1 (Homo sapiens, UniProt P29466); parameters: species or system Escherichia coli;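 further: Caspase-1 enzyme inhibition assay with a peptide substrate; in other assays of this panel Not Active means under 50% inhibition at 10 µM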
T1 sequence (P29466 whole entry): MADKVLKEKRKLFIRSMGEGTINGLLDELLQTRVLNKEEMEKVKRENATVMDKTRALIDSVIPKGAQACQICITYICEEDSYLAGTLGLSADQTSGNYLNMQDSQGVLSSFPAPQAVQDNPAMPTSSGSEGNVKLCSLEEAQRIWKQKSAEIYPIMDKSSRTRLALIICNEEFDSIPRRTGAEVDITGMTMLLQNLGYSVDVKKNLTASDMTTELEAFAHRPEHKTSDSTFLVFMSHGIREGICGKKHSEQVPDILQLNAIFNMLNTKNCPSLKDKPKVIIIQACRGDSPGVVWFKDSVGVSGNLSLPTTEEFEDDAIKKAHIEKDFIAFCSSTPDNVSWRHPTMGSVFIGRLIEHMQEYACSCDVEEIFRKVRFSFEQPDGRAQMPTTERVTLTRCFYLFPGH

Estrogen receptor = molecular target: T2, Estrogen receptor (Homo sapiens, UniProt P03372); details: sf9; further: in other assays of this panel Not Active means under 50% inhibition at 10 µM
T2 sequence (P03372 whole entry): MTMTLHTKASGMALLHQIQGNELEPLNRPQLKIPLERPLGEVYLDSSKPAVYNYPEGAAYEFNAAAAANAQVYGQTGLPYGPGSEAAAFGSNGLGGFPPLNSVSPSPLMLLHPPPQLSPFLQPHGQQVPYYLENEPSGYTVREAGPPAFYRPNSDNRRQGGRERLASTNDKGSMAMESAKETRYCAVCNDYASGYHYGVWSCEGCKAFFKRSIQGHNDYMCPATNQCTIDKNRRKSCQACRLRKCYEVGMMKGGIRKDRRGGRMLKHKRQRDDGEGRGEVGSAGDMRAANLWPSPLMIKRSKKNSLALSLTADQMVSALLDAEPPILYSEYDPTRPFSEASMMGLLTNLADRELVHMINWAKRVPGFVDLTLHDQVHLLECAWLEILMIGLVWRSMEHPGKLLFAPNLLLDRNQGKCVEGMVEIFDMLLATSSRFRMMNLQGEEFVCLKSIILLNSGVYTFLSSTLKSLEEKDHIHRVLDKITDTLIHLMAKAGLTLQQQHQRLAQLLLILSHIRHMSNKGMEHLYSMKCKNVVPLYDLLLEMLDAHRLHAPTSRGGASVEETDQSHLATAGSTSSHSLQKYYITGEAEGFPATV

D(4) dopamine receptor = molecular target: T3, D(4) dopamine receptor (Homo sapiens, UniProt P21917); experiment: DRUGMATRIX: Dopamine D4.2 radioligand binding (ligand: [3H] Spiperone); type: cell membranes, CHO-K1, Membrane; details: cho-k1; Not Active = under 50% inhibition at 10 µM
T3 sequence (P21917 whole entry): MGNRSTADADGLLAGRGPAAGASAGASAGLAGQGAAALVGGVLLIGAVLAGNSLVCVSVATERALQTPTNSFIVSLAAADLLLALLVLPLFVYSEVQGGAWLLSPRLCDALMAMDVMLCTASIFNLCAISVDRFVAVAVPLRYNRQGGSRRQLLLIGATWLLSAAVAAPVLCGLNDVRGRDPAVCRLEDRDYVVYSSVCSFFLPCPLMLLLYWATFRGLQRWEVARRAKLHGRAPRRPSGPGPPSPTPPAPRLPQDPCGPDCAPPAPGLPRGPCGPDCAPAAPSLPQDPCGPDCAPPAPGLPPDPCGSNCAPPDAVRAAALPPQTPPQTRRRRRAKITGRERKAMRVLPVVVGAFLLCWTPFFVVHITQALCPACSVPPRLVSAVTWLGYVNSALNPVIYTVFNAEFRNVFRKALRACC

Calcitonin receptor = molecular target: T4, Calcitonin receptor (Homo sapiens, UniProt P30988); type: cell membranes, Membrane; details: t47d; further: in other assays of this panel Not Active means under 50% inhibition at 10 µM
T4 sequence (P30988 whole entry): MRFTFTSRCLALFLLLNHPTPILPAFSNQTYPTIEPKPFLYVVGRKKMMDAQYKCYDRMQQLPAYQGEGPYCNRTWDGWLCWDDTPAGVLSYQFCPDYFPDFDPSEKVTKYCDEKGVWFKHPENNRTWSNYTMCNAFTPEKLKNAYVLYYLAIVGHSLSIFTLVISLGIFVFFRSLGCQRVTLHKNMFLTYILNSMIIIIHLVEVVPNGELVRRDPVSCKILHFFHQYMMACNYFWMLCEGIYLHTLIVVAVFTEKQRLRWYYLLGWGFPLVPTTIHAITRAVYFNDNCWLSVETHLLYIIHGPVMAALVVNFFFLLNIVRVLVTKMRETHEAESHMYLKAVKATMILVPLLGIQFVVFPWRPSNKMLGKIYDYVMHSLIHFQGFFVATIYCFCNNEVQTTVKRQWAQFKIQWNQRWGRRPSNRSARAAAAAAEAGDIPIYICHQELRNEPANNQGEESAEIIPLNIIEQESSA

[2] = DRUGMATRIX: GABAA, Chloride Channel, TBOB radioligand binding (ligand: [3H] TBOB); type: cell membranes, Rattus norvegicus, Wistar, Cerebral cortex, Membrane; details: Not Active = under 50% inhibition at 10 µM
[3] = molecular target: Protein phosphatase 3 catalytic subunit alpha (Homo sapiens, UniProt Q08209); parameters: species or system Escherichia coli;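 further: inhibition of calcineurin (PP2B) enzyme activity, measured with DiFMUP as the substrate; in other assays of this panel Not Active means under 50% inhibition at 10 µM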
[4] = molecular target: T5, Muscarinic acetylcholine receptor M5 (Homo sapiens, UniProt P08912); type: cell membranes, CHO-K1, Membrane; details: cho-k1; further: in other assays of this panel Not Active means under 50% inhibition at 10 µM
T5 sequence (P08912 whole entry): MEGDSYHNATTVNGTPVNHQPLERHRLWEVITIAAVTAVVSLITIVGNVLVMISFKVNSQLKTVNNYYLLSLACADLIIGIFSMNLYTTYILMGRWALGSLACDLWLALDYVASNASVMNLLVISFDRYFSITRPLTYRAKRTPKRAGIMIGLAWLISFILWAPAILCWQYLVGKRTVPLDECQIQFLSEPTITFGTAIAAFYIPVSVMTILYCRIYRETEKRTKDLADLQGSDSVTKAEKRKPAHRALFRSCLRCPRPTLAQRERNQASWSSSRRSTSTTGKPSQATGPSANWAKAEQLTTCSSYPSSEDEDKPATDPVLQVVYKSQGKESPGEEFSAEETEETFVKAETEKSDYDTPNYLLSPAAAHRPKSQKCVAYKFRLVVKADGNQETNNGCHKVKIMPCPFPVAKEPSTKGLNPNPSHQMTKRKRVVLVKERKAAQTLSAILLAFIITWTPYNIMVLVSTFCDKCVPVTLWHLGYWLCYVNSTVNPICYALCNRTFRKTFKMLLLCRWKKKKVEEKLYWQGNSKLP

| Compound | IC50 [1] | Ki [1] | IC50 (Caspase-1) | IC50 (Estrogen receptor) | IC50 (D(4) dopamine receptor) | IC50 (Calcitonin receptor) | IC50 [2] | Ki [2] | IC50 [3] | IC50 [4] | Ki (Caspase-1) | Ki (Estrogen receptor) | Ki (D(4) dopamine receptor) | Ki (Calcitonin receptor) | Ki [3] | Ki [4] | pIC50 ([2]; read-out: IC50) | pKi ([2]; read-out: Ki) |
| --- | --- | --- | --- | --- | --- | --- | --- | --- | --- | --- | --- | --- | --- | --- | --- | --- | --- | --- |
| C=C(Cl)Cl [1,1-DICHLOROETHENE] | Not Active | Not Active | Not Active | Not Active | Not Active | Not Active | Not Active | Not Active | Not Active | Not Active | – | – | – | – | – | – | – | – |
| CCC1(c2ccccc2)C(=O)NC(=O)NC1=O [PHENOBARBITAL] | Not Active | Not Active | Not Active | Not Active | Not Active | Not Active | Not Active | Not Active | Not Active | Not Active | – | – | – | – | – | – | – | – |
| CCN1C[C@]2(COC)[C@H](O)C[C@H](OC)[C@@]34[C@@H]5C[C@@]6(O)[C@H](OC(=O)c7ccccc7)[C@@H]5[C@@](OC(C)=O)([C@@H]([C@H](OC)[C@H]23)[C@@H]14)[C@@H](O)[C@@H]6OC [ACONITINE] | Not Active | Not Active | Not Active | Not Active | Not Active | Not Active | Not Active | Not Active | Not Active | Not Active | – | – | – | – | – | – | – | – |
| CCN1CCN(C(=O)N[C@@H](C(=O)N[C@@H]2C(=O)N3[C@@H]2SC(C)(C)[C@@H]3C(=O)O)c2ccccc2)C(=O)C1=O [PIPERACILLIN] | Not Active | Not Active | Not Active | Not Active | Not Active | Not Active | Not Active | Not Active | Not Active | Not Active | – | – | – | – | – | – | – | – |
| O=C(O)c1ccccc1 [BENZOIC ACID] | Not Active | Not Active | Not Active | Not Active | Not Active | Not Active | Not Active | Not Active | Not Active | Not Active | – | – | – | – | – | – | – | – |
| OC[C@H]1O[C@@H]2O[C@H]3[C@H](O)[C@@H](O)[C@@H](O[C@H]4[C@H](O)[C@@H](O)[C@@H](O[C@H]5[C@H](O)[C@@H](O)[C@@H](O[C@H]6[C@H](O)[C@@H](O)[C@@H](O[C@H]7[C@H](O)[C@@H](O)[C@@H](O[C@H]1[C@H](O)[C@H]2O)O[C@@H]7CO)O[C@@H]6CO)O[C@@H]5CO)O[C@@H]4CO)O[C@@H]3CO [ALFADEX] | Not Active | Not Active | Not Active | Not Active | Not Active | Not Active | Not Active | Not Active | Not Active | Not Active | – | – | – | – | – | – | – | – |
| c1ccc2sc(SSc3nc4ccccc4s3)nc2c1 [BENZOTHIAZYL DISULFIDE] | Not Active | Not Active | Not Active | Not Active | Not Active | Not Active | Not Active | Not Active | Not Active | Not Active | – | – | – | – | – | – | – | – |
| CNC[C@H](O)c1ccc(O)c(O)c1 [EPINEPHRINE] | Not Active | Not Active | Not Active | Not Active | Not Active | Not Active | Not Active | Not Active | Not Active | Not Active | – | – | – | – | – | – | – | – |
| POVIDONE | Not Active | Not Active | Not Active | Not Active | Not Active | Not Active | Not Active | Not Active | Not Active | Not Active | Not Active | Not Active | Not Active | Not Active | Not Active | Not Active | – | – |
| CHROMIC CHLORIDE | Not Active | Not Active | Not Active | Not Active | Not Active | Not Active | Not Active | Not Active | Not Active | Not Active | Not Active | Not Active | Not Active | Not Active | Not Active | Not Active | – | – |
| Clc1cc(Cl)c(OCC#CI)cc1Cl [HALOPROGIN] | Not Active | Not Active | Not Active | Not Active | Not Active | Not Active | Not Active | Not Active | Not Active | Not Active | – | – | – | – | – | – | – | – |
| C[N+](C)(C)CCOP(=O)([O-])OC[C@H](O)CO | Not Active | Not Active | Not Active | Not Active | Not Active | Not Active | Not Active | Not Active | Not Active | Not Active | – | – | – | – | – | – | – | – |
| COc1ccc(C[C@H](N)C(=O)N[C@H]2[C@@H](O)[C@H](n3cnc4c(N(C)C)ncnc43)O[C@@H]2CO)cc1 [PUROMYCIN] | Not Active | Not Active | Not Active | Not Active | Not Active | Not Active | Not Active | Not Active | Not Active | Not Active | – | – | – | – | – | – | – | – |
| ClC1=C(Cl)[C@]2(Cl)[C@@H]3[C@@H]4C[C@@H]([C@H]5O[C@@H]45)[C@@H]3[C@@]1(Cl)C2(Cl)Cl [DIELDRIN] | Not Active | Not Active | Not Active | Not Active | Not Active | Not Active | – | – | Not Active | Not Active | – | – | – | – | – | – | 6.47 | 6.52 |
| CARBOXYMETHYLCELLULOSE | Not Active | Not Active | Not Active | Not Active | Not Active | Not Active | Not Active | Not Active | Not Active | Not Active | Not Active | Not Active | Not Active | Not Active | Not Active | Not Active | – | – |
